Assay results taken from patent US20260125375A1 (Pfizer Inc., priority 2022, published 2026).
Like-named read-outs stand apart in the source and are kept apart here.

How the values were obtained:
[1] = target: T1, CBL-B (residues 36-427) (Homo sapiens, UniProt Q13191); experiment: Ligand Displacement Assay (LDA), HTRF competitive binding against BODIPY-labeled fluorescent tracer, CBL-B; conditions: geometric mean of the number of tests, read-out: CBL-B Ki (nM) GMean
T1 construct: Purified CBL-B (residues 36-427) and C-CBL (residues 46-435) proteins from baculovirus-infected insect cells; made in house; host or cells: baculovirus-infected insect cells
In short: (§1)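 First, the insect-cell-expressed protein is biotinylated at its amino-terminal AviTag with BirA and coupled to SA-Tb. Next, the tracer KD is determined for each protein. Finally, compounds are titrated three-fold in duplicate […], at 2% DMSO, and Ki is reported as a geometric mean.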

[2] = target: T2, C-CBL (residues 46-435) (Homo sapiens, UniProt P22681); experiment: Ligand Displacement Assay (LDA), HTRF competitive binding against BODIPY-labeled fluorescent tracer, C-CBL; conditions: geometric mean of the number of tests, read-out: C-CBL Ki (nM) GMean
T2 construct: Purified CBL-B (residues 36-427) and C-CBL (residues 46-435) proteins from baculovirus-infected insect cells; made in house; host or cells: baculovirus-infected insect cells
T2 sequence (P22681 46-435): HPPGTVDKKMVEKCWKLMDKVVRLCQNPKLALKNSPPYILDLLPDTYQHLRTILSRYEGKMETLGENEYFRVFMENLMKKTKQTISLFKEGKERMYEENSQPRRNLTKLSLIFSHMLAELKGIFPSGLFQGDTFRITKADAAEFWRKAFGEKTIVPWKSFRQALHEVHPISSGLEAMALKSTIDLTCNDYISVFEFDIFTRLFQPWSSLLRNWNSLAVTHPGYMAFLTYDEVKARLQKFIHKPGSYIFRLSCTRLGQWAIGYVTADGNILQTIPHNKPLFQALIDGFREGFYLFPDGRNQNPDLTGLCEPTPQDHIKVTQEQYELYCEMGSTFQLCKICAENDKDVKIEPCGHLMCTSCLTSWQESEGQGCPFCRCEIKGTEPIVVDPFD
In short: as §1

[3] = target: T3, CBL-B (Homo sapiens, UniProt Q13191); experiment: Jurkat HiBit-IL2 assay (c-CBL KO), reporter cell line expressing CBL-B only; type: cell-based; conditions: geometric mean, read-out: C-CBL KO EC50 (nM) GMean
T3 construct: endogenous in cells; host or cells: Jurkat HiBit-IL2 reporter cells, C-CBL knocked out by CRISPR
From the text: (§2) Jurkat HiBit-IL2 Assay (WT, c-CBL KO, CBL-B KO)
(§3) The purpose of the Jurkat HiBit-IL2 assay is to evaluate the effect of the inhibition of CBL-B and/or C-CBL on TCR/CD28 stimulated interleukin-2 (IL-2) secretion.
(§4) The expression of IL-2 can then be accurately measured by HiBit luciferase assay. Further, C-CBL or CBL-B was knocked out by CRISPR respectively in this Jurkat HiBit-IL2 reporter cell line to create reporter cell line expressing CBL-B only (c-CBL knockout (KO)) or C-CBL only (CBL-B KO).
(§5) All three reporter cell lines were maintained in RPMI-1640 media with GlutaMax, 10% fetal bovine serum, 100 units/ml of penicillin, and 100 μg/ml of streptomycin at 37° C., 5% CO2, at a cell density 1×10e5-2×10e6 viable cells/ml. Serial diluted compounds in DMSO (40 nl/well, final 0.1% DMSO in assay cell culture) were plated into 384-well white-wall clear-bottom cell culture plates. Reporter cells were pelleted and resuspended in fresh cell culture medium to 0.66×10e6 cells/ml and added to the assay plate at 30 μl/well (20,000 cells/well). The cells were incubated with compounds for 1 hour at 37° C., 5% CO2. 10 μl/well of anti-CD3 antibody (OKT3) and anti-CD28 antibody (CD28.2) prediluted in fresh cell culture medium at 4× final concentration (anti-CD3 mAb: 4 μg/ml; anti-CD28 mAb: 8 μg/ml) was added into the cells (final concentration of anti-CD3 mAb: 1 μg/ml; anti-CD28 mAb: 2 μg/ml). The cells were cultured for another 4 hours at 37° C., 5% CO2. The Nano-Glo HiBiT Lytic Reagent was prepared following the manufacturer's protocol. 20 ul/well of the Nano-Glo HiBiT Lytic Reagent was added into the reporter cell culture assay plate and incubated at room temperature (20-25° C.) for 15 minutes. The plates were read on a Perkin-Elmer EnVision plate reader with 0.1 second integration time. Data were normalized to “Fold of Effect” with the anti-CD3 and anti-CD28 antibodies only samples as the baseline activation level and EC50 was calculated. The EC50 (nM) values reported are the geometric means (GMean) of the number of tests conducted.

[4] = target: T4, C-CBL (Homo sapiens, UniProt P22681); experiment: Jurkat HiBit-IL2 assay (CBL-B KO), reporter cell line expressing C-CBL only; type: cell-based; conditions: geometric mean, read-out: CBL-B KO EC50 (nM) GMean
T4 construct: endogenous in cells; host or cells: Jurkat HiBit-IL2 reporter cells, CBL-B knocked out by CRISPR
From the text: as §2, §3, §4, §5

[5] = C-CBL KO (expressing CBL-B only), Table 16b (further repetition)
[6] = CBL-B KO (expressing C-CBL only), Table 16b (further repetition)
[7] = c-CBL KO (CBL-B only), anti-CD3/anti-CD28 stimulation 4 hours, Table 16a
[8] = CBL-B KO (C-CBL only), anti-CD3/anti-CD28 stimulation 4 hours, Table 16a

Compound	Ki [1]	Ki [2]	EC50 [3, 5]	EC50 [4, 6]	EC50 [3, 7]	EC50 [4, 8]
CC(NC[C@H](C)O)c1nccc2c(-c3cccc([C@H](c4nncn4C)C4CCC4)c3)n[nH]c12 (single isomer, unassigned) [Example C124]	7.9 nM	109 nM	348 nM	3280 nM	–	–
C[C@@H](N[C@@H]1CC[C@H](O)C1)c1nc(C(F)(F)F)cc2c(-c3cccc([C@H](c4nncn4C)C4CCC4)c3)n[nH]c12 [Example C118, (1S,3R)-3-({(1R)-1-[3-{3-[(R)-cyclobutyl(4-methyl-4H-1,2,4-triazol-3-yl)methyl]phenyl}-5-(trifluoromethyl)-1H-pyrazolo[3,4-c]pyridin-7-yl]ethyl}amino)cyclopentanol]	2.1 nM	25.5 nM	46 nM	338 nM	–	–
CC(C)[C@H]1CN(C)CCN1Cc1nc(C(F)(F)F)cc2c(-c3cccc([C@H](c4nncn4C)C4CCC4)c3)n[nH]c12 [Example D32, 3-{3-[(R)-cyclobutyl(4-methyl-4H-1,2,4-triazol-3-yl)methyl]phenyl}-7-{[(2S)-4-methyl-2-(propan-2-yl)piperazin-1-yl]methyl}-5-(trifluoromethyl)-1H-pyrazolo[3,4-c]pyridine]	1.3 nM	10.2 nM	12 nM	134 nM	8 nM	175 nM
C[C@@H](N[C@@H]1CC[C@H]1O)c1nc(C(F)(F)F)cc2c(-c3cccc([C@H](c4nncn4C)C4CCC4)c3)n[nH]c12 (single isomer, unassigned) [Example D24]	2.2 nM	22.3 nM	58 nM	452 nM	22 nM	285 nM
CC[C@H](c1cccc(-c2n[nH]c3c([C@@H](C)NC[C@H](C)O)nc(C(F)(F)F)cc23)c1)c1nncn1C (single isomer, unassigned) [Example D77]	0.8 nM	4.5 nM	33 nM	93 nM	–	–
CC(NC[C@H](C)O)c1nc(C(F)(F)F)cc2c(-c3cccc([C@H](c4nncn4C)C4CCCCC4)c3)n[nH]c12 (single isomer, unassigned) [Example C99]	3.1 nM	13.8 nM	44 nM	323 nM	–	–
C[C@H](NC(C)(C)CO)c1nc(C(F)(F)F)cc2c(-c3cccc([C@H](c4nncn4C)C4CCC4)c3)n[nH]c12 (single isomer, unassigned) [Example D17]	1.4 nM	33.2 nM	43 nM	552 nM	19 nM	270 nM
C[C@H](O)CN[C@H](C)c1nc(C(F)(F)F)cc2c(-c3cccc([C@H](c4nncn4C)C4CCC4)c3)n[nH]c12 (single isomer, unassigned) [Example D18]	1 nM	9 nM	22 nM	137 nM	10 nM	96 nM
CC(NCCO)c1nc(C(F)(F)F)cc2c(-c3cccc([C@H](c4nncn4C)C4CCC4)c3)n[nH]c12 (single isomer, unassigned) [Example C42]	2.5 nM	28.2 nM	94 nM	635 nM	29 nM	316 nM
CC(NCCO)c1nc(C(F)(F)F)cc2c(-c3cccc([C@H](c4nncn4C)C4CCCCC4)c3)n[nH]c12 (single isomer, unassigned) [Example C40]	7.1 nM	95.9 nM	214 nM	1560 nM	47 nM	1360 nM
CC(NC1CCC1)c1nc(C2CC2)cc2c(-c3cccc(C4(Cc5nncn5C)COC4)c3)n[nH]c12 (single isomer, unassigned) [Example H4, N-{(1ξ)-1-[5-cyclopropyl-3-(3-{3-[(4-methyl-4H-1,2,4-triazol-3-yl)methyl]oxetan-3-yl}phenyl)-1H-pyrazolo[3,4-c]pyridin-7-yl]ethyl}cyclobutanamine]	1 nM	4.5 nM	11 nM	28 nM	5 nM	43 nM
C[C@@H](NC(C)(C)CO)c1nc(C(F)(F)F)cc2c(-c3cccc([C@H](c4nncn4C)C4CCC4)c3)n[nH]c12 (single isomer, unassigned) [Example D55]	4.8 nM	76.5 nM	80 nM	642 nM	–	–
C[C@H](c1nc(C(F)(F)F)cc2c(-c3cccc([C@H](c4nncn4C)C4CCC4)c3)n[nH]c12)N1CC[C@@H](O)C1 (single isomer, unassigned) [Example D69]	9.3 nM	54.3 nM	154 nM	490 nM	–	–
CC(NC(=O)[C@H](C)O)c1nc(C(F)(F)F)cc2c(-c3cccc([C@H](c4nncn4C)C4CCC4)c3)n[nH]c12 (single isomer, unassigned) [Example I4]	3.4 nM	24.3 nM	108 nM	491 nM	48 nM	852 nM
C[C@H](NC1CCC1)c1nc(C(F)(F)F)cc2c(-c3cccc([C@H](c4nncn4C)C4COC4)c3)n[nH]c12 (single isomer, unassigned) [Example C123, N-{(1ξ)-1-[3-{3-[(ξ)-(4-methyl-4H-1,2,4-triazol-3-yl)(oxetan-3-yl)methyl]phenyl}-5-(trifluoromethyl)-1H-pyrazolo[3,4-c]pyridin-7-yl]ethyl}cyclobutanamine]	19.5 nM	189 nM	185 nM	1070 nM	–	–
CC(O)CNC(C)c1nc(C2CC2)cc2c(-c3cccc(C(c4nncn4C)C4CCC4)c3)n[nH]c12 (single isomer, unassigned) [Example H2]	1.4 nM	18.3 nM	41 nM	165 nM	17 nM	232 nM
CC(C)[C@H]1CNCCN1Cc1nc(C(F)(F)F)cc2c(-c3cccc([C@H](c4nncn4C)C4CCC4)c3)n[nH]c12 [Example D36]	1.4 nM	16.4 nM	52 nM	454 nM	–	–
C[C@H](O)C(=O)N[C@@H](C)c1nc(C(F)(F)F)cc2c(-c3cccc([C@H](c4nncn4C)C4CCC4)c3)n[nH]c12 (single isomer, unassigned) [Example I3]	0.8 nM	0.7 nM	6 nM	15 nM	3 nM	17 nM
CC(NC(=O)CO)c1nc(C(F)(F)F)cc2c(-c3cccc([C@H](c4nncn4C)C4CCC4)c3)n[nH]c12 (single isomer, unassigned) [Example I1]	0.8 nM	1.9 nM	29 nM	163 nM	16 nM	182 nM
